The test system of test [1] is HEK 293 cells. Put plainly: IκBα mRNA levels in HEK 293 cells after TGF-β1 treatment. In kind it is cell-based. Conditions: HEK 293 cells (data not shown). An excerpt: (§1) TGF-β degrades IκBα mRNA to atypically activate NF-κB: RNA SGs/PBs have the function to degrade mRNAs by targeting the AU-rich element (AUE) at the 3′ untranslated region (UTR) (36-38). […] This information led to the suspicion that TGF-β could work to degrade IκBα mRNA. […] To test if TGF-β induced IκBα mRNA decay is accountable for the glucose metabolism disorder, an experiment was designed to study if the pro-diabetic effect of brain TGF-β excess could be reversed through directly increasing hypothalamic IκBα mRNA. Using an approach which was established previously (23), a lentiviral system was employed to deliver exogenous Iκbα mRNA into the mediobasal hypothalamus of chow-fed C57BL/6 mice, and indeed, this lentivirus-delivered Iκbα mRNA prevented TGF-β1 injection from activating hypothalamic NF-κB (FIG. 5f). Metabolic analysis confirmed that this treatment attenuated the effect of TGF-β1 from impairing insulin-dependent glucose control (FIG. 5g).

In test [2] the test system is hypothalamic RNA SGs/PBs genes, IκBα mRNA, Pomc mRNA. The experiment in a line: Hypothalamic mRNA levels and HuR immunostaining after third-ventricle TGF-β1. In kind it is in vivo, mice. From the text:
POMC neurons direct the pro-T2D effect of TGF-β excess: It was subsequently studied if hypothalamic neurons are critical for the pro-diabetic effects of brain TGF-β excess. […] It was studied if POMC neurons could be crucial for the pro-diabetic effect of brain TGF-β excess. […] To carry out this study, a genetic mouse model was generated with Tgfbr2 knockout specifically in POMC neurons by crossing Tgfbr2lox/lox mice with POMC-Cre mice. As a result, compound offspring POMC-Tgfbr2lox/lox mice were obtained and littermate control Tgfbr2lox/lox mice. These mice were maintained on normal chow feeding or 3-week HFD feeding. […] Taken together, the action of TGF-β in POMC neurons is important for the pro-diabetic effect of brain TGF-β excess. POMC-Cre can target other types of neurons during the developmental stage (34), thus, the pro-diabetic mechanism of TGF-β may involve additional hypothalamic or brain neurons.
Induction of hypothalamic RNA SGs/PBs by TGF-β or HFD: In exploring how TGF-β could activate hypothalamic NF-κB without requiring pro-inflammatory kinase signaling, attention was directed to a possible role from mRNA regulation. In coping with inflammatory stress, eukaryotic cells can develop a process known as RNA stress response which is characterized by RNA stress granules (SGs) and processing bodies (PBs) (36-38). In this reaction, messenger ribonuclear protein (mRNP) byproducts exit from polysomes and form RNA SGs at discrete cytoplasmic foci. RNA SGs primarily consist of poly(A)+mRNAs-containing 48S pre-initiation complexes, small ribosomal subunits, mRNA decay factor tristetraprolin (TTP), translation initiation factors such as eukaryotic translation initiation factor-4E (eIF4E), eIF4G, eIF4A, eIF4B, poly(A)-binding protein (PABP), and RNA helicases (36-38). RNA stress response can lead to the export of mRNPs into the PBs, a complex which harbors an array of mRNA decay machineries that act to dispose mRNAs from SGs or polysomes (36-38). PBs contain nontranslating mRNAs, translation repressors, mRNA decay machineries (including 5′-3′ mRNA decay system, nonsense-mediated decay pathway, and RNA-induced silencing complex), and mRNA decay factors such as TTP, eIF4E, DEAD box RNA helicase family member p54/RCK, […] (CPEB), B-related factor 1/RNA polymerase III transcription initiation factor IIIB subunit (BRF1), eukaryotic translation initiation factor 4E transporter (4-ET), and RNA-binding protein Smaug (36-38). […] In line with these observations, we examined if the morphology of RNA SGs could be detected in the hypothalamus of these mice. […] Consistently, these morphological changes were found in the hypothalamus of HFD-fed mice but almost not chow-fed mice (supplementary FIG. 6b). […]

For test [3], the system named is hypothalamic GT1-7 cells. The experiment in a line: IκBα mRNA levels in GT1-7 cells after TGF-β1 treatment. In kind it is cell-based. The following applies: GT1-7 cells, TGF-β1 10 ng/ml.
From the text: as §1
Cell culture. GT1-7 cells were cultured as described previously (14). Briefly, GT1-7 cells were maintained in Dulbecco's Modified Eagle's Medium (Invitrogen) with 10% fetal bovine serum (Hyclone) and penicillin/streptomycin (Invitrogen), at 37° C. in a humidified atmosphere containing 5% CO2. Cells were fasted in serum-free medium for an overnight period, and then were subjected to TGF-β1 treatment at the indicated dose and time course.

Test [4] has as its system Myd88 knockout mice. Put plainly: Third-ventricle TGF-β1 delivery in Myd88 knockout mice. The class given is in vivo. The following applies: hypothalamic third ventricle; data not shown. From the text:
To further assess this point, it was asked if the effects of brain TGF-β excess could be impaired by ablation of a signaling component, such as toll-like receptor-4 (TLR4) or myeloid differentiation primary response gene 88 (MyD88), because they employ kinase signaling to induce IκBα phosphorylation and thus NF-κB activation. Using a genetic model, T1r4 knockout (T1r4−/−) mice, TGF-β1 or vehicle was delivered into the hypothalamic third ventricle of these mice and littermate WT mice via pre-implanted cannula. Vehicle-injected T1r4−/− mice and WT mice were both normal in glucose and insulin tolerance tests (FIG. 4a, b). […] Altogether, brain TGF-β excess may use a mechanism that directly targets IκBα rather than upstream kinase signaling to activate hypothalamic NF-κB.

As for “TGF-β1: transforming growth factor-β1 (Sigma), cytokine dissolved in artificial cerebrospinal fluid for third-ventricle injection”, the “IκBα mRNA levels” value in test [1] and in test [3] was “notably decreased” throughout. Moreover, the “HuR-containing aggregates in perinuclear regions of hypothalamic cells” value in test [2] (HuR immunostaining) was “present”. Moreover, in test [2] (injection into the third ventricle of normal mice (4 ng), similar to 3-month HFD), the “hypothalamic increases of RNA SGs/PBs genes” value is listed as “similarly induced”. For the same substance, the “hypothalamic IκBα mRNA levels” value in test [2] (intra-third ventricle injection (4 ng)) is recorded as “sufficient to decrease”. Moreover, the “Pomc mRNA levels in the hypothalamus vs controls” value in test [2] (mouse, in vivo) is on record as “lower”. In addition, in test [4], the “effect of lack of Myd88 on glucose or insulin intolerance following TGF-β1 delivery” value is “did not lead to a significant reduction”.

The values above are taken from patent US20170114128A1, “USE OF TGF-BETA ANTAGONISTS OF TREAT TYPE-2 DIABETES” (ALBERT EINSTEIN COLLEGE OF MEDICINE, INC., priority 2014, published 2017).
